Laboratory results: patent publication US7115566B2, “Compounds and method for the prevention and treatment of diabetic retinopathy” (University of Florida, priority 1997, dated 2006)

Experiments:
[1] = pilot study of continuous octreotide infusion to prevent progression of diabetic retinopathy; assay type: in vivo, human
[2] = test system: human retinal endothelial cells (HREC); test: proliferation and [3H] thymidine incorporation in growth factor stimulated HREC; assay type: cell-based
[3] = several months of continuous infusion; 4 patients; cited from earlier work
[4] = octreotide in patients with severe proliferative diabetic retinopathy (Grant, 1987–1994)
[5] = test system: retinal neovascularization; test: intravitreal IGF-1 rabbit model of retinal angiogenesis; assay type: in vivo, pigmented rabbits; conditions: for ophthalmoscopy findings: all rabbits
Procedure: Pigmented rabbits were selected for study after considering the ocular anatomy, animal supply and established use of the species in ophthalmology. Growth factor was injected into the vitreous of pigmented rabbits (n=30) as previously described. Briefly, rabbits were anesthetized with ketamine and xylazine and a 30 g needle was used to withdraw 80 μl of fluid from the anterior eye chamber under an operating microscope. Then a 30 g needle was used to administer 0.1 ml of balanced salt solution containing 600 μg of IGF-1 adjacent to the surface of the retina near the optic nerve head. The rabbits were placed in a supine position for 30–60 minutes to facilitate solution dispersal onto the vascularized medullary ray and disc. Control animals (n=10) received the same dose of heat-inactivated protein (IGF-I held at 100° C. for 30 min). Animals were periodically examined using indirect ophthalmoscopy, fundus photography, and fluorescein angiography from days 2 through 21.
The temporal sequence of the anatomical changes seen in the IGF 1-injected eyes is as follows. […] The fundus of control eyes remained normal in appearance. […] Numerous distended vessels with edematous endothelial cells were found on the surface of the retina along with extensive proliferation of their extracellular matrix. […] Reduplication of the basement membrane, a strong indicator of endothelial cell hyperreactivity, was a consistent finding in all IGF-1 treated eyes. Endothelial cell mitosis was validated using antibody to proliferating cell nuclear antigen. Systemic unpackaged peptide, e.g. lanreotide can be tested for its ability to inhibit IGF-1 induced neovascularization in this rabbit model.

[6] = test system: cytomegalovirus (CMV); conditions: cited from earlier work
[7] = continuous infusion pump for 4 weeks, cited from earlier work
[8] = compared with octreotide; cited from earlier work
[9] = test system: insulin secretion; conditions: normal physiological conditions; cited from earlier work
[10] = test system: chorioallantoic membrane of the developing chick embryo; conditions: chick chorioallantoic membrane assay; cited from earlier work
[11] = in vivo; cited from earlier work
[12] = after a similar dose (200 μg/kg); cited from earlier work
[13] = six patients, 25 to 100 μg three times a day

octreotide
HgA1c ([1]; four octreotide-treated subjects, within the first 6 months of therapy): normalized | suppression of GH and IGF-1 levels into the hypopituitary range ([1]; four patients): not achieved in any patient | clinical or angiographic improvement ([1]; four patients, continuous infusion, doses up to 5000 μg/day): no patient showed clear clinical or angiographic improvement | progression to high risk characteristics requiring laser therapy ([1]; four patients, in at least one eye): Laser therapy was initiated in all four patients | visual acuity ([1]; patients receiving octreotide): statistically significant improvement | [3H] thymidine incorporation ([2]; IGF-1 and b-FGF stimulated HREC): dose-dependent inhibition | proliferation of HREC ([2]; IGF-1 stimulated cultures): significantly decreased | inhibitory effect on proliferation of HREC ([2]; b-FGF stimulated cultures): 40–45% | cell proliferation ([2]; cells grown in control medium): minimal effect | retinal function [3]: improved | HgA1c ([4]; all seven study patients): reductions | sense of well-being ([4]; all seven study patients): improved | visual acuity ([4]; all seven study patients): improved | posterior pole neovascularization ([4]; seventh patient): not affected | side effects leading to stopping the drug ([4]; seventh patient): gastrointestinal side effects | iris neovascularization ([4]; seventh patient with severe bilateral neovascular glaucoma): regressed completely | disease progression during treatment period [4, 13]: None of the six patients showed disease progression | regression of NVD [4, 13]: four

IGF-1: insulin-like growth factor 1, injected intravitreally to induce retinal neovascularization
ophthalmoscopy findings ([5]; 3 days after intravitreal injection of 600 μg): hyperemia with vascular engorgement | microscopic findings on the surface of the retina ([5]; all eyes treated): abnormal vessels were observed on the surface of the retina | ophthalmoscopy findings ([5]; by day 7): Vascular tortuosity, intraretinal hemorrhage, and severe increased hyperemia surrounding the optic disc | ophthalmoscopy findings ([5]; by day 21): Fibrosis developed over the optic disc and medullary ray

Nc1nc(O)c2ncn(COC(CO)CO)c2n1 [ganciclovir]
CMV-encephalitis ([6]; at autopsy): widespread CMV-encephalitis | treatment of CMV retinitis ([6]; verified at autopsy): successful treatment of CMV retinitis

lanreotide
disease regressed [7]: 2 patients | disease progression halted ([7]; subjects who completed dosing): 8 of 8 | clinical tolerance [8]: better tolerated than octreotide | effect on insulin secretion [9]: suppress insulin secretion | inhibition of angiogenesis [10]: more potent in inhibiting angiogenesis compared to the natural somatostatin tetradecapeptide | excreted intact [11]: > 90% | stability of the peptide [11]: stable | LNT levels in rat eyes [12]: unable to detect significant LNT levels
